System: human myeloma cell line MM.1S
Assay: SILAC acetylated-lysine peptide profiling, HDAC inhibitor vs DMSO (light/heavy ratio)
Format: cell-based
Excerpt: An embodiment of the invention comprises utilizing the SILAC method in order to quantitate changes in protein expression between two or more populations of cells. The SILAC method is a technique based on mass spectrometry that detects differences in protein abundance among samples using non-radioactive isotopic labeling. The SILAC method is known in the art, and described in detail in Ong et al., “Stable Isotope Labeling by Amino Acids in Cell Culture, SILAC, as a Simple and Accurate Approach to Expression Proteomics”, Molecular & Cellular Proteomics, vol. 1, pp. 376-386 (2002), which is incorporated herein by reference in its entirety.
Briefly, the SILAC method involves growing two populations of cells in cell culture. The first population of cells is grown in growth media containing normal amino acids (“normal media”). The second population of cells is grown in media lacking a standard essential amino acid (such as lysine), but is then supplemented with a non-radioactive, isotopically labeled form of that essential amino acid (such as lysine labeled with ^13C atoms, rather than normal ^12C atoms), which is called “heavy media”. When the two populations of cells are each growing in the medium, they incorporate the amino acids into all of their proteins. The growth of cells maintained in the heavy media is no different from that in normal media. All peptides containing the heavy amino acids are heavier than their normal counterparts. The cells from each of the two populations of cells are lysed. The lysates from each of the two cell populations are then combined. The combined cell lysates are then analyzed by mass spectrometry. Pairs of chemically identical peptides of different stable isotope composition can be differentiated in a mass spectrometer due to their difference in mass. The ratio of peak intensities in the mass spectrum for such peptide pairs reflects the abundance ratio for the two proteins.
This example describes SILAC studies that were performed to compare the effects of three different HDAC inhibitors (Compound A, Compound B, and tubastatin A) to a control on a human multiple myeloma cell line. The HDAC inhibitors were also compared amongst themselves to determine differences in their effects.
A human myeloma cell line MM.1S was grown using either ^12C (light) or ^13C (heavy) lysine containing culture medium. The “heavy” cells were treated with DMSO as the control, and the “light” cells were treated with a single HDAC inhibitor at 37° C. for 6 hours. The heavy and light cells were lysed, and the lysates were mixed in 1:1 ratio and digested with the protease trypsin. The acetylated lysine containing peptides (due to the action of the HDAC inhibitor) in the digested peptide pool were captured by a non-specific anti-acetylated lysine antibody cocktail (the antibodies identify both light and heavy acetylated peptides), and subjected to mass spectrometry analysis in order to identify thousands of individual peptides.
Thousands of peptides were identified in pairs (^12C and ^13C) due to their known mass differences. The amino acid sequence and quantitative ratio (Light/Heavy) of a given peptide in two differentially treated cell lysates were then determined and annotated with their possible protein (gene) sources.
As stated above, three HDAC inhibitors (Compound A, Compound B, and Tubastatin A) were used. Thus, the SILAC method was performed three times, with a different HDAC inhibitor compared to a control each time. Accordingly, there are three pairs of quantitative data in the table below, i.e., Compound A:DMSO, Compound B:DMSO, and Tubastatin A:DMSO. A cut-off of 1.30 fold of change (increase or decrease) was then used to determine “changed” or “+” in the table, and any peptides with a fold of change less than 1.3 fold were determined to be “unchanged” or “0” in the table. Those peptides that were not identified were marked as “NA” in the table. […]

With `O=C(CCCCCCNC(=O)c1cnc(N(c2ccccc2)c2ccccc2)nc1)NO` [Compound A, 2-(diphenylamino)-N-(7-(hydroxyamino)-7-oxoheptyl)pyrimidine-5-carboxamide] the “light to heavy ratio (L/H ratio) of acetylated peptide EIAENALGK(ac)HK (SEQ ID NO: 617)” value (Isoform 1 of Heterogeneous nuclear ribonucleoprotein H3 [76], gene HNRNPH3, inhibitor:DMSO) was 0.47 log 2, the “light to heavy ratio (L/H ratio) of acetylated peptide DVSYQGGK(ac)SIK (SEQ ID NO: 571)” value (Isoform 1 of Histone-lysine N-methyltransferase MLL3 [758], gene MLL3, inhibitor:DMSO) was 0.42 log 2 and the “light to heavy ratio (L/H ratio) of acetylated peptide TLVLSDK(ac)HSPQK (SEQ ID NO: 523)” value (Isoform 1 of Histone-lysine N-methyltransferase MLL3 [2809], gene MLL3, inhibitor:DMSO) was −0.46 log 2. The “light to heavy ratio (L/H ratio) of acetylated peptide VK(ac)NELFK (SEQ ID NO: 565)” value (Isoform 1 of Hydroxyacyl-coenzyme A dehydrogenase mitochondrial [127], gene HADH, inhibitor:DMSO) was 0.41 log 2, the “light to heavy ratio (L/H ratio) of acetylated peptide LVAENK(ac)FGK (SEQ ID NO: 296)” value (Isoform 1 of Hydroxyacyl-coenzyme A dehydrogenase mitochondrial [301], HADH, drug:DMSO) was 0.74 log 2 and the “light to heavy ratio (L/H ratio) of acetylated peptide K(ac)[…] (SEQ ID NO: 316)” value (Isoform 1 of L-lactate dehydrogenase A chain [318], LDHA, drug:DMSO) was 1.00 log 2. The “light to heavy ratio (L/H ratio) of acetylated peptide INK(ac)ALDK (SEQ ID NO: 344)” value (Isoform 1 of Myosin-9 [435], MYH9, drug:DMSO) was 0.00 log 2, the “light to heavy ratio (L/H ratio), log 2 scale, acetylated peptide INKALDK(ac)TK (SEQ ID NO: 802)” value (Isoform 1 of Myosin-9 [439], gene MYH9, drug:DMSO) was 1.00 and the “light to heavy ratio (L/H ratio) of acetylated peptide FYK(ac)[…] (SEQ ID NO: 596)” value (Isoform 1 of N-alpha-acetyltransferase 50 NatE catalytic subunit [37], gene NAA50, inhibitor:DMSO) was 0.45 log 2. The “light to heavy ratio (L/H ratio), log 2 scale, acetylated peptide VYFK(ac)DTHPK (SEQ ID NO: 758)” value (Isoform 1 of NADH-cytochrome b5 reductase 3 [115], gene CYB5R3, drug:DMSO) was 0.90, the “light to heavy ratio (L/H ratio), log 2 scale, acetylated peptide […](ac)SK (SEQ ID NO: 767)” value (Isoform 1 of Peripherin [288], gene PRPH, drug:DMSO) was 0.94 and the “light to heavy ratio (L/H ratio) of acetylated peptide K(ac)EYVFADSK (SEQ ID NO: 616)” value (Isoform 1 of Phosphatidylinositol-345-trisphosphate 5-phosphatase 1 [371], gene INPP5D, LOC646743, inhibitor:DMSO) was 0.47 log 2. The “light to heavy ratio (L/H ratio) of acetylated peptide VK(ac)ILFNK (SEQ ID NO: 561)” value (Isoform 1 of Polypyrimidine tract-binding protein 1 [368], gene PTBP1, inhibitor:DMSO) was 0.40 log 2, the “light to heavy ratio (L/H ratio) of acetylated peptide TACAINK(ac)VLMGR (SEQ ID NO: 584)” value (Isoform 1 of Protein FAM98A [297], gene FAM98A, inhibitor:DMSO) was 0.43 log 2 and the “light to heavy ratio (L/H ratio) of acetylated peptide LMK(ac)YLLEQLK (SEQ ID NO: 585)” value (Isoform 1 of Protein MB21D1 [414], gene MB21D1, inhibitor:DMSO) was 0.43 log 2. For the same compound, the “light to heavy ratio (L/H ratio) of acetylated peptide VLSK(ac)[…] (SEQ ID NO: 294)” value (Isoform 1 of Protein SET [154], SET, drug:DMSO) was 0.69 log 2, the “light to heavy ratio (L/H ratio) of acetylated peptide […](ac)ALK (SEQ ID NO: 349)” value (Isoform 1 of RNA-binding protein with serine-rich domain 1 [218], RNPS1, drug:DMSO) was 0.00 log 2 and the “light to heavy ratio (L/H ratio), log 2 scale, acetylated peptide […](ac)TDQAQDVK (SEQ ID NO: 765)” value (Isoform 1 of Signal recognition particle 9 kDa protein [52], gene SRP9, drug:DMSO) was 0.93. For the same compound, the “light to heavy ratio (L/H ratio), log 2 scale, acetylated peptide AMMEK(ac)LVK(ac)SISQLK (SEQ ID NO: 814)” value (Isoform 1 of Signal transducer and activator of transcription 2 [158:161], gene STAT2, drug:DMSO) was 1.00, the “light to heavy ratio (L/H ratio) of acetylated peptide DMCLEK(ac)DTLGLFLR (SEQ ID NO: 530)” value (Isoform 1 of U5 small nuclear ribonucleoprotein 200 kDa helicase [745], gene SNRNP200, inhibitor:DMSO) was −0.41 log 2 and the “light to heavy ratio (L/H ratio) of acetylated peptide LEMSYSK(ac)FK (SEQ ID NO: 304)” value (Isoform 1 of UDP-N-acetylglucosamine--dolichyl-phosphate N-acetylglucosaminephosphotransferase [320], DPAGT1, drug:DMSO) was 1.00 log 2. For the same compound, the “light to heavy ratio (L/H ratio) of acetylated peptide PK(ac)PLLFK (SEQ ID NO: 544)” value (Isoform 1 of UDP-glucose:glycoprotein glucosyltransferase 1 [176], gene UGGT1, inhibitor:DMSO) was 0.39 log 2, the “light to heavy ratio (L/H ratio) of acetylated peptide TMSCSDK(ac)ILR (SEQ ID NO: 323)” value (Isoform 2 of Double-stranded RNA-specific adenosine deaminase [1013], ADAR, drug:DMSO) was 0.00 log 2 and the “light to heavy ratio (L/H ratio) of acetylated peptide […](ac)[…] (SEQ ID NO: 336)” value (Isoform 2 of Fibronectin type-III domain-containing protein 3A [507], FNDC3A, drug:DMSO) was 0.00 log 2. For the same compound, the “light to heavy ratio (L/H ratio), log 2 scale, acetylated peptide FYEQFSK(ac)NIK (SEQ ID NO: 799)” value (Isoform 2 of Heat shock protein HSP 90-alpha [565], gene HSP90AA1, drug:DMSO) was 1.00, the “light to heavy ratio (L/H ratio) of acetylated peptide SK(ac)GK(ac)NSDEEAPK (SEQ ID NO: 615)” value (Isoform 2 of Inhibitor of growth protein 4 [145:147], gene ING4, inhibitor:DMSO) was 0.47 log 2 and the “light to heavy ratio (L/H ratio) of acetylated peptide LSFISVGNK(ac)FK (SEQ ID NO: 521)” value (Isoform 2 of Myosin-VI [646], gene MYO6, inhibitor:DMSO) was −0.49 log 2. For the same compound, the “light to heavy ratio (L/H ratio) of acetylated peptide AEK(ac)[…] (SEQ ID NO: 503)” value (Isoform 2 of Neutral alpha-glucosidase AB [242], gene GANAB, inhibitor:DMSO) was −0.71 log 2, the “light to heavy ratio (L/H ratio) of acetylated peptide GAK(ac)PVVVLQK (SEQ ID NO: 611)” value (Isoform 2 of Nipped-B-like protein [1000], gene NIPBL, inhibitor:DMSO) was 0.47 log 2 and the “light to heavy ratio (L/H ratio) of acetylated peptide LIAGNK(ac)[…] (SEQ ID NO: 512)” value (Isoform 2 of Nuclear factor related to kappa-B-binding protein [1262], gene NFRKB, inhibitor:DMSO) was −0.58 log 2. For the same compound, the “light to heavy ratio (L/H ratio) of acetylated peptide […](ac)K (SEQ ID NO: 626)” value (Isoform 2 of Septin-7 [207], gene, inhibitor:DMSO) was 0.49 log 2, the “light to heavy ratio (L/H ratio) of acetylated peptide YQQFK(ac)DFQR (SEQ ID NO: 258)” value (Isoform 2 of Spliceosome RNA helicase DDX39B [349], SNORD84, DDX39B, drug:DMSO) was 0.39 log 2 and the “light to heavy ratio (L/H ratio) of acetylated peptide GLCEK(ac)PLASAAAK (SEQ ID NO: 536)” value (Isoform 2 of Transportin-3 [513], gene TNPO3, inhibitor:DMSO) was −0.39 log 2. For the same compound, the “light to heavy ratio (L/H ratio), log 2 scale, acetylated peptide LEPLK(ac)PLK (SEQ ID NO: 772)” value (Isoform 3 of Proline-rich protein 12 [1223], gene PRR12, drug:DMSO) was 1.00, the “light to heavy ratio (L/H ratio), log 2 scale, acetylated peptide DQTK(ac)SIVEK (SEQ ID NO: 810)” value (Isoform 3 of Reticulon-3 [217], gene RTN3, drug:DMSO) was 1.00 and the “light to heavy ratio (L/H ratio) of acetylated peptide LAAFGQLHK(ac)[…] (SEQ ID NO: 570)” value (Isoform 5 of Interleukin enhancer-binding factor 3 [332], gene ILF3, inhibitor:DMSO) was 0.41 log 2.

Reference: patent US20140357512A1, “HISTONE DEACETYLASE (HDAC) BIOMARKERS IN MULTIPLE MYELOMA” (priority 2013, published 2014)
